Laboratory results as given in US8632839B2, “Methods of forming self-supporting films for delivery of therapeutic agents” (priority 2010, dated 2014).
Counter-ions that a name gives are not always drawn.

Assay: saturation and payload limits for dip coating bupivacaine HCl on polyester mesh (FIG. 8)
Format: physicochemical
Conditions: Parietex monofilament polyester mesh without polymer film
From the text: Further, it is believed that spraying films on a medical device (e.g., mesh) compared to other conventional methods, such as dip coating, provides increased loading of the therapeutic agent.
More particularly FIG. 8 illustrates the loading limits for a polyester mesh (Parietex™ monofilament mesh) without a polymer film.

saturation and payload limit for dip coating solution (solution in MeOH): 12 % w/v
saturation and payload limit for dip coating solution (solution in water): 5 % w/v
SMILES: CCCCN1CCCCC1C(=O)Nc1c(C)cccc1C (centres unmarked) [bupivacaine HCl, bupivacaine hydrochloride]
